According to ChEMBL document CHEMBL1949583, “Credneramides A and B: neuromodulatory phenethylamine and isopentylamine derivatives of a vinyl chloride-containing fatty acid from cf. Trichodesmium sp. nov” (J Nat Prod, 2012):

test: Neuromodulatory activity in mouse cerebrocortical neurons assessed as inhibition of calcium oscillation; type: functional; conditions: Cerebral cortex neuron

IC50 [µM]	SMILES
4	CCC/C(=C\Cl)C/C=C/CCC(=O)NCCc1ccccc1 [CREDNERAMIDE A]
3.9	CCC/C(=C\Cl)C/C=C/CCC(=O)NCCC(C)C [CREDNERAMIDE B]
8.2	CCC/C(=C\Cl)C/C=C/CCC(=O)O [CREDNERIC ACID]
